# Source: US10544190B2, “Peptide that supresses binding of beta-amyloid and rage” (ENSOL BIOSCIENCES INC., priority 2016, dated 2020)
# Where a SMILES comes first, the peptide text is derived from it. Where no end group is shown, it is not given here.
# How the values were obtained:
# beta-amyloid 1-42 [1] = assay: Inhibition of entry of beta-amyloid 1-42 into brain II (ELISA of brain); format: in vivo; details: ICR mice, peptide 25 mg/kg intraperitoneally; for Beta-amyloid 1-42 concentration in brain: 20 min before i.v. 25 μM beta-amyloid 1-42, control group 60.8 ± 14.8, normal group 0.0 ± 11.9
# Experimental: Based on the test results of Example 1, the following test was conducted in order to evaluate whether Example 2 and Comparative Examples 1 and 2, in addition to Example 1, are effective at inhibiting the entry of beta-amyloid 1-42 into the brain.
# Specifically, 1 mg ofbeta-amyloid 1-42 (American Peptide Company, Sunnyvale, Calif., USA) was added with 2 ml of hexafluoroisopropanol (HFIP), allowed to stand at room temperature for 3 days, and aliquoted at 100 μl each into tubes. After evaporation of hexafluoroisopropanol (HFIP) using a speed vacuum, 10 μl of an anhydrous DMSO (dimethyl sulfoxide) solution was placed in one of the aliquoted tubes, so as to realize sufficient dissolution, after which 400 μl of phosphate buffer saline (PBS) was added thereto, thus preparing a 25 μM beta-amyloid 1-42 solution.
# ICR mice (The Jackson Laboratory, Bar Harbor, Me., USA) were divided into a normal group, a control group and four test groups. The respective test groups were intraperitoneally administered with the peptide of each of Example 1, Example 2, Comparative Example 1, and Comparative Example 2 in amounts of 25 mg/kg, and the control group was treated in the same manner as in the test group, with the exception that an excipient (10% DMSO in saline, 10 ml/kg) was used in lieu of the peptide. After 20 min, the control group and the test groups were intravenously (i.v.) injected through the tail vein with 400 μl of 25 μM beta-amyloid 1-42. Furthermore, the normal group was treated in the same manner as in the control group, with the exception that beta-amyloid 1-42 was not added. 10 min after the tail venous injection of beta-amyloid, about 50 μl of blood was collected from the infraorbital vein of each mouse using a sodium-heparinized capillary tube, after which the mouse was immediately subjected to euthanasia with carbon dioxide (CO2) gas and then the right hemisphere of the mouse was extracted and stored in liquid nitrogen. All the collected blood samples were centrifuged at 13,000 rpm for 10 min. The supernatant was isolated, placed in the prepared tube, and diluted at 1/4000, followed by ELISA (Enzyme-Linked ImmunoSorbent Assay or Enzyme-Linked ImmunoSpecific Assay) ofbeta-amyloid 1-42.
# The frozen right hemisphere was added with 3 ml of a RIPA buffer (Radio Immuno Precipitation Assay buffer), sonicated, and centrifuged, after which the supernatant was isolated, followed by protein concentration measurement through BCA assay (bicinchoninic acid assay). BCA assay was performed in accordance with the kit (Thermo Scientific, Waltham, Mass., USA, Cat. No. 23227) protocol. The beta-amyloid 1-42 concentration in the brain was measured through ELISA in a RIPA-homogenate. ELISA was performed in accordance with the kit (IBL International, Hamburg, Germany, Code No. 27711) protocol.
# beta-amyloid 1-42 [2] = assay: Inhibition of entry of blood beta-amyloid 1-42 into brain I (ELISA of brain and plasma); format: in vivo; details: ICR mice; for beta-amyloid 1-42 concentration in the brain: 20 min before i.v. 400 μl of 25 μM beta-amyloid 1-42, brain taken 10 min after
# Experimental: The inhibition of entry of blood beta-amyloid 1-42 into the brain by the peptide of Example 1 was experimentally verified. Specifically, in order to evaluate the effect of the peptide of Example 1 on inhibiting the entry of beta-amyloid 1-42 into the brain, which is the cause of Alzheimer's disease, 1 mg of beta-amyloid 1-42 (American Peptide Company, Sunnyvale, Calif., USA) was added with 2 ml of hexafluoroisopropanol (HFIP), allowed to stand at room temperature for 3 days, and aliquoted at 100 μl each into tubes. After evaporation of hexafluoroisopropanol (HFIP) using a speed vacuum, 10 μl of an anhydrous DMSO (dimethyl sulfoxide) solution was placed in one of the aliquoted tubes, so as to realize sufficient dissolution, after which 400 μl of phosphate buffer saline (PBS) was added thereto, thus preparing a 25 μM beta-amyloid 1-42 solution.
# ICR mice (The Jackson Laboratory, Bar Harbor, Me., USA) were divided into a normal group, a control group and two test groups. The respective test groups were intraperitoneally administered with the peptide of Example 1 in amounts of 2.5 mg/kg and 25 mg/kg, and the control group was treated in the same manner as in the test group, with the exception that an excipient (10% DMSO in saline, 10 ml/kg) was used in lieu of the peptide of Example 1. After 20 min, the control group and the test groups were intravenously (i.v.) injected through the tail vein with 400 μl of 25 μM beta-amyloid 1-42. Furthermore, the normal group was treated in the same manner as in the control group, with the exception that beta-amyloid 1-42 was not added. […]
# The frozen right hemisphere was added with 3 ml of a RIPA buffer (Radio Immuno Precipitation Assay buffer), sonicated, and centrifuged, after which the supernatant was isolated, followed by protein concentration measurement through BCA assay (bicinchoninic acid assay). […] The beta-amyloid 1-42 concentration in the brain was measured through ELISA in a RIPA-homogenate. […]
# TNF-alpha = assay: Biomarker change in animal models: brain TNF-alpha by ELISA; format: in vivo, DTg mouse; details: DTg mice, 50 mg/kg intraperitoneally for 13 weeks; control 1109.91±285.30; p<0.05
# Experimental: (§1) In order to evaluate the effect of changing the biomarker using animal models in which an administration period of a total of 13 weeks was terminated in the <Evaluation of learning and memory recovery effects using animal models> test, the following test was conducted. After termination of intraperitoneal administration for a total of 13 weeks, the animal models were subjected to euthanasia using carbon dioxide (CO2) and the brain thereof was immediately extracted. Upon brain extraction, the entire brain was taken out so as not to be scratched, and was then lightly washed with saline solution. […]
# (§2) The left hemisphere stored in a deep freezer at −80° C. was placed in a RIPA buffer (Radio Immuno Precipitation Assay buffer) and sonicated, thus preparing a brain homogenate. Thereafter, the amount of protein was measured through BCA assay (BicinChoninic Acid assay). […] The biomarker expression level was measured through ELISA, and ELISA assay was performed in accordance with the kit{Amyloid-beta(1-42) Elisa kit: IBL International, Hamburg, Germany (27711), TNF-alpha ELISA kit: Koma Biotech, Seoul, Korea (K0331186P), GFAP Elisa kit: Millipore Corporation, Billerica, Mass., USA (NS830)} protocol. […]
# (§3) The biomarkers measured through ELISA were beta-amyloid 1-42, TNF-alpha, and GFAP (glial fibrillary acidic protein). […]
# [3] = test system: GFAP (glial fibrillary acidic protein); assay: Biomarker change in animal models: brain GFAP by ELISA; format: in vivo, DTg mouse; details: DTg mice, 50 mg/kg intraperitoneally for 13 weeks; control 70.61±26.82
# Experimental: as §1, §2, §3
# beta-amyloid 1-42 [4] = assay: Biomarker change in animal models: brain beta-amyloid 1-42 by ELISA; format: in vivo, DTg mouse; details: DTg mice, 50 mg/kg intraperitoneally for 13 weeks; control 76.03±25.63
# Experimental: as §1, §2, §3
# [5] = test system: double transgenic mouse (DTg mouse) models having induced human Alzheimer's disease; assay: Learning and memory recovery, Y-maze test in Alzheimer's model mice; format: in vivo; details: 50 mg/kg intraperitoneally once a day, 5 times a week, test 10 weeks after administration, control 49.44±3.88%, P<0.01
# Source text: The learning and memory recovery effects of the peptide of Example 1 were experimentally verified. Specifically, in order to evaluate the effect of the peptide of Example 1 on inhibiting learning and memory reduction, which are symptoms of Alzheimer's disease, 30-week-old double transgenic mouse (DTg mouse, Jackson Laboratory, USA) models having induced human Alzheimer's disease, obtained in a manner in which a human-derived gene of beta-amyloid precursor protein APP (APPsw; amyloid mutation) having Swedish mutation and a human-derived gene in the form of exon-9 deletion of a gamma secretase PSI gene were over-expressed in the brain through genetic manipulation, were used for tests.
# The test animals were acclimated in an animal room after purchase in accordance with the Guidelines for Experimental Animal Tests and treated in accordance with the approved Animal Experimental Plan. The test conditions were maintained at a temperature of 23±1° C. and a humidity of 50±5%, and the light/dark cycle was 12 hr ([…]). During the testing, animals were free to consume water and feed. […]
# The Y-maze test is an experiment to observe the voluntary tendency of an animal to search a new environment using short-term memory ability. […] Spontaneous alternation (%) was calculated using the following equation. […]
compound,measurement,setting,value
VKMDAEFR [Comparative Example 2],entry of beta-amyloid into the brain (result in words),beta-amyloid 1-42 [1],did not inhibit
same,Beta-amyloid 1-42 concentration in brain,beta-amyloid 1-42 [1],87.6 ± 14.9 pg/mg protein
"N[C@@H](CC(=O)O)C(=O)NCC(=O)N[C@@H](CCC(=O)O)C(=O)N[C@@H](Cc1ccccc1)C(=O)O [Example 2, DGEF] (H-DGEF-OH; N-terminus and C-terminus assumed)",entry of beta-amyloid into the brain (result in words),beta-amyloid 1-42 [1],effectively inhibited
same,Beta-amyloid 1-42 concentration in brain,beta-amyloid 1-42 [1],48.8 ± 14.7 pg/mg protein
DAEF [Comparative Example 1],entry of beta-amyloid into the brain (result in words),beta-amyloid 1-42 [1],did not inhibit
same,Beta-amyloid 1-42 concentration in brain,beta-amyloid 1-42 [1],69.5 ± 6.1 pg/mg protein
"DGEFF [Example 1, DGEFF]",beta-amyloid 1-42 concentration in the brain,beta-amyloid 1-42 [2]; peptide 2.5 mg/kg intraperitoneally,195.5 ± 5.6 pg/mg
same,beta-amyloid 1-42 concentration in the brain,beta-amyloid 1-42 [2]; peptide 25 mg/kg intraperitoneally,187.8 ± 2.4 pg/mg
same,plasma beta-amyloid levels versus control group,"beta-amyloid 1-42 [2]; peptide 2.5 and 25 mg/kg intraperitoneally, blood 10 min after i.v. beta-amyloid 1-42",not greatly different
same,Beta-amyloid 1-42 concentration in brain,beta-amyloid 1-42 [1],54.8 ± 8.0 pg/mg protein
same,TNF-alpha concentration in brain homogenate,TNF-alpha,798.99±172.90 pg/mg protein
same,GFAP concentration in brain homogenate,[3],47.63±24.92 ng/mg protein
same,beta-amyloid 1-42 concentration in brain homogenate,beta-amyloid 1-42 [4],57.56±28.47 ng/mg protein
same,spontaneous alternation (Y-maze test),[5],63.22±2.56%
